Experimental data reported in paper PMC8047011, “Enantiomers of 2-methylglutamate and 2-methylglutamine selectively impact mouse brain metabolism and behavior” (Scientific Reports, 2021).

What was measured:
[1] = tested on: C57Bl/6 mice; experiment: Elevated plus maze; assay type: in vivo, mouse; conditions: chronic 10 mg/kg/day IP, week 1 of testing
From the text: See Supplementary Methods for details.
Elevated Plus Maze: The maze was made of acrylonitrile butadiene styrene (ABS) plastic and had two open arms and two close arms that were 30 cm long and 5 cm wide. The center area where the open and close arms meet was 5 cm x 5 cm. The open arms had 2 mm lips at the edges, and the closed arms had 15 cm opaque walls. The maze was elevated 50 cm and surrounded by privacy blinds during the test. The maze was illuminated to 7 lux using red light throughout the test. Each mouse was released in the center of the maze and given 5 min to explore the maze. Duration and frequency in each zone of the maze were recorded using Ethovision (Noldus Information Technology, Wageningen, the Netherlands) tracking software. […]

[2] = Pharmacokinetics in mouse serum and brain; assay type: in vivo; conditions: 100 mg/kg IP
Protocol: Pharmacokinetics on 2MeGlu and 2MeGln in mice
C57BL/6 mice (Jackson Laboratory cat. no. 000664) were administered 100 mg/kg IP. At the times indicated, mice were deeply anesthetized by isoflurane, blood was collected by cardiac puncture and left to clot on ice, and then animals were perfused with cold PBS until viscera […]
dissected and one half frozen at –80 °C until homogenization in ice cold PBS (pH 7.4) using a probe ultrasonic homogenizer (Branson Sonifier 450, Power: 5, Cycle: 30%, time: 10 s) on ice.
The lysate was centrifuged (2,500g for 15 min at 4 °C) and the supernatant was assayed using Pierce BCA Protein Assay Kit (23225) using BioTek Epoch plate spectrophotometer by recording absorbance at 562 nm.
Two or three 10 μL aliquots of the homogenate were transferred to a 96 well plate and extracted with 190 μL of 60% acetonitrile in water containing 10 μM GABA-d6 or 10 μM Glu-d5 and Gln-d5 as internal standards. 40 μL aliquots of the extracts were then diluted with 120 μL of acetonitrile and prepared for LC-MS/MS analysis. Brain and serum half-lives were calculated using the ‘PKNCA’ package for R. Endogenous levels of Glu, Gln and GABA were determined in the brains of mice used in the pharmacokinetics experiment. MRM transitions specific for Glu, Gln and GABA were monitored simultaneously. […]

[3] = tested on: C57Bl/6 mice; experiment: Y maze spontaneous alternation; assay type: in vivo, mouse; conditions: chronic 10 mg/kg/day IP, week 2 of testing
From the text: Y Maze Spontaneous Alternation: The Y maze is made of plastic with 3 arms in a "Y" shape.
The arms are labelled as Arm A, B, and C; Arm A is 20.32 cm (L) x 5 cm (W) 12.7 cm (H), Arm B and C are 15.24 cm (L) x 5 cm (W), and 12.7 cm (H). The test is based on the willingness of rodents to explore a novel environment and designed to measure spontaneous alternations in rodents. Each mouse was placed in the center of the maze facing Arm B. The first entry was excluded from data analysis because the animals were led to the initial arm entry by the experimenter. Using an overhead camera, the number of arm entries and alternations were recorded for 5 minutes. An arm entry is when all four paws enter into a new arm of the maze.
The apparatus was cleaned with 1% Virkon. Parameters recorded were % alternation and the total number of entries into arms. […]

[4] = tested on: C57Bl/6 mice; experiment: Chronic low dose exposure, mortality and body weight; conditions: 10 mg/kg/day IP for a month
Protocol: Behavioral tests were performed on 2 month-old, male, C57Bl/6 mice. We selected male mice because SBFNL historical controls are male mice. First, we assessed safety and tolerability of acute exposure to our novel chemicals through the following sequence of tests immediately following IP injection: maximum tolerated dose with novel cage observation at 100, 300, or 900 mg/kg, and then SHIRPA, activity chamber, and then hot plate latency using 100 or 30 mg/kg IP in different drug naïve mice. […] Animals were dosed daily from 3 to 5 PM after the conclusion of each behavioral testing session. […] See Supplementary Methods for details. […]
sound-attenuating chamber was 74 cm (L) x 60 cm (W) x 60 cm (H). The mice were placed in the corner of the testing arena and allowed to explore the arena for 60 min while being tracked automatically. Parameters measured include distance moved, velocity, rearing, and times spent in the periphery and center of the Arena. Periphery was defined as the zone 5 cm away from the arena wall. The Arena was cleaned with a 1% Virkon solution at the end of the trial.
The novel cage observation (vide supra) and activity chamber open field assessment are not […]
outcome. The novel cage protocol is conducted on the benchtop in a lighted room using a clean home cage, and tests habituation using video recording and scoring of behavioral performance.
Moreover, the novel cage allows the tester to visualize any other side effects such as seizure or repetitive jumping. The activity chamber is in an enclosed box, and the test is done in the dark, without bedding, and in a sound isolating chamber. The activity chamber measures distance moved using infrared beams and without video recordings.
In vivo animal studies; Chronic Efficacy Study using C57Bl/6J mice
Animal: Two month-old, naïve male C57Bl/6 mice from Jackson Laboratory (Stock ID# 000664) were used in the study. The animals were housed as described above.
Dosing: (R)-2MeGlu (10 mg/kg), (S)-2MeGlu (10 mg/kg), rac-2MeGln (10 mg/kg), and vehicle (PBS) were administered IP at 10 ml/kg dosing volume daily. […]

[5] = target: T1, GABAB (B1b/B2) (Homo sapiens, UniProt Q9UBS5); experiment: GABAB (B1b/B2) binding assay; conditions: triplicate, read-out: % of radioligand binding inhibition, GABAB (B1b/B2)
T1 construct: purchased SB Drug Discovery (CNS discovery panel, FLIPR); Eurofins Discovery (Cerep)
T1 sequence (Q9UBS5 1-844 isoform Q9UBS5-2): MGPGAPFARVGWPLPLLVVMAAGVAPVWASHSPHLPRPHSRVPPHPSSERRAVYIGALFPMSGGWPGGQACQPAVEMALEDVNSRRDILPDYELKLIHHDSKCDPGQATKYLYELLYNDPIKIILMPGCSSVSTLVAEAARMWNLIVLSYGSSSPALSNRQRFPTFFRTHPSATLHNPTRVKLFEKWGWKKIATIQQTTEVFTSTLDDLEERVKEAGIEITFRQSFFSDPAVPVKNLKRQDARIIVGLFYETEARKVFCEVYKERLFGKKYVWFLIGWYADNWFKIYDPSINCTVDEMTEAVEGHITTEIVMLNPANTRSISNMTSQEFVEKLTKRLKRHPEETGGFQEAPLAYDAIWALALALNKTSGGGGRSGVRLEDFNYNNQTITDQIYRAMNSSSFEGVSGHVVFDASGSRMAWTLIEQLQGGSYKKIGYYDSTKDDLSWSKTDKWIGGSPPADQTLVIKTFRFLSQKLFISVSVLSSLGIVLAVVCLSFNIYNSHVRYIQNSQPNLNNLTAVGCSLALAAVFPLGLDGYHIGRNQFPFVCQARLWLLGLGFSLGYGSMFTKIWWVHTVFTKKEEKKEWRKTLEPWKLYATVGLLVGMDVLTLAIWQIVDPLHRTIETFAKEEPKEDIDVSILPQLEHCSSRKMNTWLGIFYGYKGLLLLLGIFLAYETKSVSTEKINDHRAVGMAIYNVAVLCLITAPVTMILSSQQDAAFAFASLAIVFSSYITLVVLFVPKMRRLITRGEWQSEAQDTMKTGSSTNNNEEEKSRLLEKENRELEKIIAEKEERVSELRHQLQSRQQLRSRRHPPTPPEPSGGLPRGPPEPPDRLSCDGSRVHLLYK
T1 sequence (O75899 42-941 partner): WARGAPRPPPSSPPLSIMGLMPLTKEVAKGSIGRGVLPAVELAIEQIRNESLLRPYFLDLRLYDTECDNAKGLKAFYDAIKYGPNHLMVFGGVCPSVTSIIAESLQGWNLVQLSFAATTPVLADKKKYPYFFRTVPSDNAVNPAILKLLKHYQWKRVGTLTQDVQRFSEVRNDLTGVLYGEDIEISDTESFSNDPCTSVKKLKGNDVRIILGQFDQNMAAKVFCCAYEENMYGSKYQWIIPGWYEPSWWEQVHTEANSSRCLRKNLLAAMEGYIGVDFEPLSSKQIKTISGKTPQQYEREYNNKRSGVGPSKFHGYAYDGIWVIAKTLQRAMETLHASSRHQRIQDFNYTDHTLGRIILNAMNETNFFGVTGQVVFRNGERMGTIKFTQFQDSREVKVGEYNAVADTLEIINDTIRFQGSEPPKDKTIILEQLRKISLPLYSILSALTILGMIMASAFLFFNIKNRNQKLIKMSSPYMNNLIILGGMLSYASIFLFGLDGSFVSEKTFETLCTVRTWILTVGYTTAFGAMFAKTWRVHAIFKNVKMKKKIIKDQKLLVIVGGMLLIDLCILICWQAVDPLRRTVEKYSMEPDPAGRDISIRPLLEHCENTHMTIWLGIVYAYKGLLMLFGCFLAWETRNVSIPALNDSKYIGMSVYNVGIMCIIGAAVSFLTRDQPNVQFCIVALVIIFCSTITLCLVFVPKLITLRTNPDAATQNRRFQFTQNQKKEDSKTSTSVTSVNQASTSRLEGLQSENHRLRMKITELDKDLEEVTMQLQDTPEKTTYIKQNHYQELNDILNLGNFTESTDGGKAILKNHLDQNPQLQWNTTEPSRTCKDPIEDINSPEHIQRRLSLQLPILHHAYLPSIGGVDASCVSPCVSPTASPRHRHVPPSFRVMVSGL
Protocol: mGluR1, mGluR2, mGluR5 and GABAB binding assays were performed by Eurofins Discovery. […]
mGluR5 and GABAB binding assays were performed using recombinant CHO-K1 cells and
[3H]CGP-54626 and [3H]quisqalic acid, respectively. All compounds were tested at a single
concentration of 100 uM in triplicate. […]

[6] = tested on: primary murine cerebral astrocytes; experiment: Astrocyte transport and metabolism of 2MeGlu; assay type: cell-based, mouse; conditions: 1 mM substrate, 2 h, 37 °C
Protocol: Primary astrocytes from C57Bl/6 mouse brain were cultured in complete astrocyte growth medium at 37 °C at 5% CO2 on 96 well plates. Cells were exposed to 1 mM compound in 100 μL medium for 2 h at 37 °C. Supernatants were collected, centrifuged at 2500g for 10 min at 4 °C. 10 μL aliquots were diluted with 190 μL 60% ACN containing 10 μM Glu-d5 and Gln-d5. Cells were quickly washed with 250 μL cold PBS twice and suspended in 200 μL of 60% ACN containing 10 μM Glu-d5 and Gln-d5. All samples were shaken at 1000 rpm for 5 min and then stored at – 80 °C.

Structure (SMILES) | Time spent in the open arms in the elevated plus maze [1] | Time of peak brain concentration [2] | Spontaneous alternation in the Y maze [3] | Body weight over the month [4] | inhibition at 100 µM [5] | Maximum brain concentration [2] | half-life ([2]; C57BL/6, brain, estimated) | Astrocyte uptake and conversion to 2MeGln [6] | Brain accumulation (with metabolite (S)-2MeGln) relative to (R)-2MeGlu [2]
CC(N)(CCC(N)=O)C(=O)O (racemic) [rac-2MeGln, rac-2-methylglutamine] | no significant effect of treatment | 25 min | no significant effect of treatment | no significant effect of treatment |  |  |  |  | 
C[C@@](N)(CCC(=O)O)C(=O)O [(R)-2MeGlu, (R)-2-methylglutamic acid] | no significant effect of treatment | ≤ 5 min | no significant effect of treatment | no significant effect of treatment | 13% | 30 pmol/mg protein | ~1.17 h | not detected within astrocytes in significant amounts, and no conversion to 2MeGln was detected | 
C[C@](N)(CCC(=O)O)C(=O)O [(S)-2MeGlu, (S)-2-methylglutamic acid] | no significant effect of treatment | 25 min | no significant effect of treatment | no significant effect of treatment | 14% | 50 pmol/mg protein |  | transported into astrocytes and then converted into 2MeGln | as much as tenfold more
